Test results taken from patent US20240207414A1, “DISULFIDE-BASED PRODRUG COMPOUND” (Ludwig-Maximilians-Universitat Munchen, priority 2021, published 2024).

How the values were obtained:
[1] = target: T1, GR/GSH/Grx (glutaredoxin 1, Grx1) (Homo sapiens, UniProt P35754); assay: Enzymatic activation assay: GR/GSH/Grx1; format: biochemical; settings: full mixture NADPH/GR/GSH/Grx1
T1 sequence (P35754 1-106): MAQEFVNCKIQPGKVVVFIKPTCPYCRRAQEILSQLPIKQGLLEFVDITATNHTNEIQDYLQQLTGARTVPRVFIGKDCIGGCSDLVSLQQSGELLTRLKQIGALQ
From the text: (§1) This assay (see FIG. 2) examined the resistance of disulfide-based reduction-triggered compounds to the major cellular enzymatic systems that maintain redox homeostasis and are capable of reducing disulfides, evaluated in a cell-free assay, to see if these compounds can be useful for selective enzyme-triggered release.
(§2) Assay conditions: A black 96-well plate with black bottom was charged with solutions of fluorophore-releasing reduction-triggered probes that are compounds of the invention (P1, P2) or that are not compounds of the invention and reveal the performance of prior art systems (X19) (50 μL; 40 μM in aq. TE buffer (pH 7.4) and 4 μL DMSO). Separately, master mixes (30 μL in aq. TE buffer (pH 7.4)) containing mixtures of the proteins human recombinant thioredoxin 1 (Trx1, 0.166-16.66 μM) or thioredoxin 2 (Trx2, 3.3 μM), or human recombinant glutaredoxin 1 (“Grx1”, 3.3 μM) or glutaredoxin 2 (Grx2, 3.3 μM) and/or oxidoreductases human recombinant thioredoxin reductase 1 (TrxR1, 0.07 μM), the thioredoxin reductase Secys498Cys mutant (TrxR1-U498C, 0.07 μM), thioredoxin reductase 2 (TrxR2, 0.07 μM) or human recombinant glutathione reductase (GR, 0.07 μM), and/or GSH (3.3 μM) were prepared. Note that TrxR1 (U498C) has decreased reducing power compared to TrxR1 due to the mutation of the key vicinal selenothiol/thiol into a vicinal dithiol, but it still reduces Trx1. […]
(§3) Data Representation: (F(t)-F^NADPH(t)) is the fluorescence intensity of the test solution at time t, from which is subtracted a background fluorescence level also at time t from a solution with NADPH (which itself is fluorescent, and is present in 10-fold higher concentration than the probe) and with the same protein mixture but without the probe. F^max(t) is the maximum possible fluorescence intensity value at time t, determined by incubation with TCEP (100 μM)) similarly as for the chemical reductant assay. (F(t)−F^NADPH(t))/F^max(t) thus gives the timecourse of fluorescence signal, as a fraction of the maximum possible fluorescence signal. […]

GR/GSH = target: T2, GR/GSH (Homo sapiens, UniProt P00390); assay: Enzymatic activation assay: GR/GSH; format: biochemical; settings: NADPH/GR/GSH
T2 sequence (P00390 44-522): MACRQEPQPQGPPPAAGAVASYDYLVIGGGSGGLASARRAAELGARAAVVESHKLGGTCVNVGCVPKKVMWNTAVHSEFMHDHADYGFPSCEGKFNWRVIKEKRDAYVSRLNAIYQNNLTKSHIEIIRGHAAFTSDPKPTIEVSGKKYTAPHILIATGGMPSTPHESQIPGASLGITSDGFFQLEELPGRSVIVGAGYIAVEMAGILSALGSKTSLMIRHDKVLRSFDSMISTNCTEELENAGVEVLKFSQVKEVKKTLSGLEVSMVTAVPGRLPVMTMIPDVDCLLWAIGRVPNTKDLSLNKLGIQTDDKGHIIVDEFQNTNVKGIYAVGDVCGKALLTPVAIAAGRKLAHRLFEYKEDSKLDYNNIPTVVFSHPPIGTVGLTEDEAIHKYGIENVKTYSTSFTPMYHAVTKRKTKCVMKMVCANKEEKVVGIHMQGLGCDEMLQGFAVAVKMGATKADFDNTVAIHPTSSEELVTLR
From the text: as §1, §2, §3

NADPH/TrxR1/Trx1 = target: T3, NADPH/TrxR1/Trx1 (Homo sapiens, UniProt P10599); assay: Enzymatic activation assay: NADPH/TrxR1/Trx1 system; format: biochemical; settings: NADPH/TrxR1 plus Trx1, 37° C., 6 h
T3 sequence (P10599 1-105): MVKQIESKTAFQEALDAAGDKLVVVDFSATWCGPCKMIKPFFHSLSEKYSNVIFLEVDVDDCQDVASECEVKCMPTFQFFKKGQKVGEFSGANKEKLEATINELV
From the text: as §1, §2, §3

HeLa, A549 and MEF cells = assay: Cellular reduction assay (FIG. 3); format: cell-based, human, mouse; settings: 100 μM, 1% vol DMSO, cells under ordinary conditions
Experimental: Assay Conditions: Cells were cultured under standard conditions (Gao, L. et al. Cell Chemical Biology 2021, 28, 1-14. https://doi.org/10.1016/j.chembiol.2020.11.007), left to adhere for 24 h, then compounds were added to 100 μM with 1% vol DMSO. Fluorescence timecourse measurements were acquired as in the chemoreductant assay, with all conditions in triplicates.
Data Representation: F(t)-F(0) is the fluorescence intensity signal increase as compared to time zero signal (fluorescence intensity immediately following compound addition, before probe activation can occur), in arbitrary units although with the same detection settings for all probes releasing the same cargo. This corresponds to reduction-triggered cargo release. “ctrf” indicates cells not treated with probes, as a negative control.

[2] = target: T4, glutathione reductase (GR) (Homo sapiens, UniProt P00390); assay: Enzymatic activation assay: GR; format: biochemical; settings: NADPH/GR
T4 sequence (P00390 44-522): T2 sequence (P00390 44-522)
From the text: as §1
Assay conditions: A black 96-well plate with black bottom was charged with solutions of fluorophore-releasing reduction-triggered probes that are compounds of the invention (P1, P2) or that are not compounds of the invention and reveal the performance of prior art systems (X19) (50 μL; 40 μM in aq. TE buffer (pH 7.4) and 4 μL DMSO). […]
as §3

Compound	cargo release / processing by GR/GSH/Grx1 [1]	cargo release / processing by GR/GSH mixture (GR/GSH)	cargo release / processing by TrxR plus Trx1 (NADPH/TrxR1/Trx1)	cargo release inside cells (fluorescence signal increase over time) (HeLa, A549 and MEF cells)	cargo release / processing by oxidoreductase GR [2]
O=C(Oc1ccc(Cl)cc1-c1nc2ccc(Cl)cc2c(=O)[nH]1)N1CCC[C@@H]2CSSC[C@H]21 (racemic) [Compound P1, 4-chloro-2-(6-chloro-4-oxo-3,4-dihydroquinazolin-2-yl)phenyl-(trans)-hexahydro-[1,2]dithiino[4,5-b]pyridine-1(2H)-carboxylate]	only processed by high levels of Grx1 and Grx2	resist	processed when additional high levels of Trx1 and Trx2 are added	do not release cargo inside cells under ordinary conditions	resist
O=C(Oc1ccc(Cl)cc1-c1nc2ccc(Cl)cc2c(=O)[nH]1)N1CCC[C@@H]2CSSC[C@@H]21 (racemic) [Compound P2, 4-chloro-2-(6-chloro-4-oxo-3,4-dihydroquinazolin-2-yl)phenyl-(cis)-hexahydro-[1,2]dithiino[4,5-b]pyridine-1(2H)-carboxylate]	only processed by high levels of Grx1 and Grx2	resist	processed when additional high levels of Trx1 and Trx2 are added	do not release cargo inside cells under ordinary conditions	resist
4-chloro-2-(6-chloro-4-oxo-3,4-dihydroquinazolin-2-yl)phenyl methyl(2-((2-(methyl amino)ethyl)disulfaneyl)ethyl)carbamate [Compound X19, reference compound]	enhanced reaction kinetics	rapidly degraded	enhanced reaction kinetics	substantially release cargo inside cells cultured under ordinary conditions	
